Experimental data reported in patent publication US8791258B2, “Pro-fluorescent probes” (The Regents of the University of California, priority 2008, dated 2014).

Legend:
[1] = tested on: embryonic rat hippocampal neurons (E18); assay: Fluorescence imaging of H2O2 in cultured hippocampal neurons; type: cell-based
Experimental: Hippocampal primary cultures were prepared from embryonic day 18 (E18) rat embryos according to a previously reported protocol. Briefly, hippocampi were dissociated by treatment with trypsin for 20 min at 37° C. followed by washing. The neuronal cells were plated on glass coverslips (Carolina Biological, Burlington, N.C.) coated with poly-L-lysine ([…], Sigma) and cultured in neurobasal medium supplemented with 2 mM Glutamax and 2% B-27 (Invitrogen). After 10 days in vitro, the cultures were washed with PBS, incubated with the probe in PBS, and imaged.
Finally, the successful use of the Peroxysensor probes for monitoring changes in intracellular H2O2 concentrations in mammalian cell lines using either confocal or two-photon microscopy led us to evaluate their utility in primary culture systems. […] Control neurons without PF1 and/or H2O2 treatment show no detectable fluorescence enhancements. These experiments confirm that PF1 can be used in living neurons to detect oxidative stress events.

HEK cells = assay: Confocal and two-photon fluorescence imaging of H2O2 in live HEK cells; settings: for intracellular background fluorescence of probe-loaded cells before H2O2: 5-10 μM probe, 2-10 min at 25° C.; for intracellular fluorescence after addition of H2O2: probe-loaded cells, 10-100 μM H2O2
Experimental: (a) Fluorescence image of HEK cells incubated with 5 μM PF1 for 5 min at 25° C. (b) Fluorescence image of PF1-stained HEK cells treated with 100 μM H2O2 for 11 min at 25° C. Excitation was provided at 488 nm, and emission was collected in a window from 505 to 580 nm. Scale bar=27 μm.
(a) Fluorescence image of HEK cells incubated with 10 μM PR1 for 10 min at 25° C. (b) Fluorescence image of PR1-stained HEK cells treated with 100 μM H2O2 for 30 min at 25° C. Excitation was provided at 543 nm, and emission was collected in a window from 548 to 644 nm. Scale bar=18 μm.
(a) Fluorescence image of HEK cells incubated with 10 μM PX1 for 2-3 min at 25° C. (b) Fluorescence image of PX1-stained HEK cells treated with 100 μM H2O2 for 30 min at 25° C. Two-photon excitation was provided at 704 nm, and emission was collected in a window from 420 to 500 nm. Scale bar=18 μm.
HEK 293T cells were cultured in Dulbecco's Modified Eagle Medium (DMEM, Invitrogen, Carlsbad, Calif.) supplemented with 10% Fetal Bovine Serum (FBS, Invitrogen), glutamine (2 mM), and penicillin/streptomycin (50 μg/ml, Invitrogen). One day before imaging, cells were passed and plated on 18-mm glass coverslips coated with poly-L-lysine (50 μg/ml, Sigma, St. Louis, Mo.). Immediately before the experiments, cells were washed with PBS buffer, incubated with the probe in PBS, and imaged.
Confocal fluorescence imaging was performed with a Zeiss LSM510 META laser scanning microscope containing an Axioplan 2 MOT upright microscope and a 40× water-immersion objective lens. Excitation of PF1-loaded cells at 488 nm was carried out with an argon ion laser, and emission was Collected in a window from 505 nm to 580 nm using a META detection system. Excitation of PR1-loaded cells at 543 nm was carried out with a HeNe laser, and emission was collected in a window from 548 nm to 644 nm using a META detector. PF1 or PR1 were incubated with live cell samples for 5 to 10 min. Addition of H2O2 (10 to 100 μM) to cell samples was performed directly on the microscope stage by bath application to the media.
Two-photon fluorescence imaging of PX1 was carried out using an inverted Zeiss LSM510 Axiovert 200M microscope with a NeoFLUAR 40×/1.3 NA oil-immersion objective lens. Samples were excited by 704-nm pulses from a mode-locked Ti:Sapphire laser (Tsunami, SpectraPhysics, 120-150 fs pulse width, 80 MHz repetition rate). The emission light was filtered with a 80-nm wide bandpass filter centered at 460 nm (460BP40, Chroma) and detected with the non-descanned detector (NDD) of the LSM510.

[2] = Fluorescence response to various ROS (H2O2 selectivity); settings: 100 μM ROS, 20 mM HEPES, pH 7, 25° C.
Experimental: (§1) FIG. 7 is the fluorescence response of 5 μM PF1 to various ROS (10 mM O2^−, 100 μM for all other ROS). .OH and .Ot-Bu were generated by reaction of Fe^2+ with H2O2 or tert-butyl hydroperoxide (TBHP), respectively. NO was delivered using S-nitrosocysteine (SNOC). Spectra were acquired in 20 mM HEPES, pH 7, and all data were obtained after incubation with the appropriate ROS at 25° C. for 1 h. Collected emission was integrated between 460 and 700 nm (λexc=450 nm).
FIG. 8 is the fluorescence response of 5 μM PR1 to various ROS (10 mM O2^−, 100 μM for all other ROS). .OH and .O^tBu were generated by reaction of Fe^2+ with H2O2 or tert-butyl hydroperoxide (TBHP), respectively. NO was delivered using S-nitrosocysteine (SNOC). Spectra were acquired in 20 mM HEPES, pH 7, and all data were obtained after incubation with the appropriate ROS at 25° C. for 30 min. Collected emission was integrated between 570 and 800 nm (λexc=560 nm).
as §1, with “FIG. 9” for “FIG. 7”, “of 10” for “of 5”, “μM PX1” for “μM PF1”, “between 370” for “between 460”, “and 600” for “and 700”, “nm (λexc=350” for “nm (λexc=450”
(§2) Millipore water was used to prepare all aqueous solutions. All spectroscopic measurements were performed in 20 mM HEPES buffer, pH 7. Absorption spectra were recorded using a Varian Cary 50 spectrophotometer (Walnut Creek, Calif.). Fluorescence spectra were recorded using a Photon Technology International Quanta Master 4 L-format scanning spectrofluorometer (Lawrenceville, N.J.) equipped with an LPS-220B 75-W xenon lamp and power supply, A-1010B lamp housing with integrated igniter, switchable 814 photon-counting/analog photomultiplier detection unit, and MD5020 motor driver. Samples for absorption and fluorescence measurements were contained in 1-cm×1-cm quartz cuvettes (1.4- or 3.5-mL volume, Starna, Atascadero, Calif.).
FIG. 7, FIG. 8 and FIG. 9 compare the relative reactivities of boronate-based PF1, PR1, and PX1, respectively, toward various ROS.

[3] = Absorption and emission properties, fluorescence quantum yield; type: physicochemical; settings: absorption maximum 350 nm; 20 mM HEPES, pH 7
Experimental: as §2
as §2, with “recorded on” for “recorded using”, “Creek, Calif.) and fluorescence” for “Creek, Calif.). Fluorescence”, “and emission” for “and fluorescence”, “cuvettes (1.5-mL” for “cuvettes (1.4- or 3.5-mL”, “Calif.). Fluorescence quantum yields were determined by reference to fluorescein in 0.1M NaOH (Φ=0.95).” for “Calif.).”

[4] = Fluorescence response to H2O2 in 20 mM HEPES, pH 7
Experimental: as §2
The Peroxysensor reagents were evaluated under simulated physiological conditions (20 mM HEPES buffer, pH 7). […] FIG. 4, FIG. 5 and FIG. 6 show the fluorescence responses of PF1, PR1, and PX1, respectively, to H2O2.

Row | SMILES | background fluorescence of probe-loaded neurons ([1]; 10 μM probe, 5 min at 25° C.) | intracellular fluorescence under simulated oxidative stress ([1]; 300 μM H2O2 for 30 min at 25° C.) | cell viability during imaging (HEK cells) | membrane permeability / cell entry (HEK cells) | intracellular background fluorescence of probe-loaded cells before H2O2 (HEK cells) | intracellular fluorescence after addition of H2O2 (HEK cells) | higher response for H2O2 over .OH ([2]; .OH from Fe2+ with H2O2) [fold] | higher response for H2O2 over .OtBu ([2]; .OtBu from Fe2+ with TBHP) [fold] | extinction coefficient ε at 350 nm [3] [M⁻¹ cm⁻¹] | increase in integrated fluorescence intensity / integrated emission on reaction with H2O2 (dynamic range) [4] [fold] | higher response for H2O2 over NO ([2]; NO delivered using SNOC) | higher response for H2O2 over tert-butyl hydroperoxide (TBHP) [2] [fold]
1 | CC1(C)OB(c2ccc3c(c2)Oc2cc(B4OC(C)(C)C(C)(C)O4)ccc2C32OC(=O)c3ccccc32)OC1(C)C [PF1, 3′,6″-Bis(pinacolatoboron)fluoran] | negligible background fluorescence | notable increases in intracellular fluorescence | cells are viable throughout the imaging experiments | can passively enter live cells | negligible intracellular background fluorescence | prompt increases in intracellular green fluorescence | > 3 | > 15 |  |  |  | 
2 | CC1(C)OB(c2ccc3c(=O)c4ccc(B5OC(C)(C)C(C)(C)O5)cc4oc3c2)OC1(C)C [PX1, 3,6-Bis(pinacolatoboron)xanthone] |  |  |  |  | minimal intracellular background fluorescence | Prompt increases in intracellular blue fluorescence |  |  | 4700 | 52 | ca. 6 fold | > 100
